Consider three molecules from patent US20230210816A1 (priority 2020, published 2023).

Read-outs that look alike come from different tables or passages of the source.

The test system of one data set is PICV-GFP. In words: microbe, parasite or virus in culture. The class given is cell-based. The conditions noted are these: Pichinde virus, Vero C1008, 48 h.
The conditions of data set [1]: human, in vivo, cited from earlier work.
For data set [2], the system named is MLV pseudovirus bearing MARV Musoke glycoprotein. The data set can be described thus: microbe, parasite or virus in culture. In kind it is cell-based.
The next data set relates to arenaviruses. In words: organism not typed. In kind it is cell-based. Conditions: read-out: in vitro IC50.
Data set [3] has as its system LASV and JUNV pseudoviruses. The data set can be described thus: organism not typed. The class given is cell-based.
For data set [4], the system named is MLV pseudovirus bearing LCMV glycoprotein. In words: microbe, parasite or virus in culture. In kind it is cell-based. Conditions: Vero, 24 h.
The next data set relates to EBOV and MARV. The data set can be described thus: microbe, parasite or virus in culture. The class given is cell-based. Conditions: Zaire ebolavirus, read-out: in vitro IC50.
In a further data set the test system is LASV Josiah. In words: microbe, parasite or virus in culture. The conditions noted are these: Mammarenavirus lassaense, Vero C1008. The class given is cell-based, Lassa virus.
In data set [5] the test system is MLV pseudovirus bearing PICV WT glycoprotein. In words: microbe, parasite or virus in culture. The class given is cell-based. Conditions: Vero, 24 h.
Data set [6] relates to MLV pseudovirus bearing JUNV glycoprotein. In words: microbe, parasite or virus in culture. The class given is cell-based. Conditions: Vero, 24 h.
Data set [7] concerns MLV pseudovirus bearing MARV Angola glycoprotein. The data set can be described thus: microbe, parasite or virus in culture. The class given is cell-based.

`CCN(CC)Cc1cc(Nc2ccnc3cc(Cl)ccc23)ccc1O` [amodiaquine]: in the data set on PICV-GFP, the IC50 (as a rule, the concentration that inhibits the measured activity by half) came to 4.5 µM.

On to `CCOC(=O)c1c(CSc2ccccc2)n(C)c2cc(Br)c(O)c(CN(C)C)c12` [arbidol], for which the Cmax (usually the highest concentration seen after dosing) in data set [1] (po) was 900 to 1500 nM; in [1], 4000 nM. In addition, the IC50 is 3.5 µM in data set [2]; 6 to 10 µM in the data set with arenaviruses; 3 to 4 µM in data set [3] (read-out: IC50 of arbidol in combination); 7.4 µM in data set [4]; 2.7 to 3.9 µM in the data set on EBOV and MARV; 10 µM in the data set on LASV Josiah. The IC50 worked out at 7.4 µM in data set [5], 8.4 µM with PICV-GFP, 6.4 µM in data set [6] and 3.9 µM in data set [7]. For the same molecule, the “fold reduction of IC50 of arbidol by combination” value in [3] is on record as “about 2 fold”.

For the molecule `O=C(Nc1ccc([N+](=O)[O-])cc1Cl)c1cc(Cl)ccc1O` [niclosamide], the IC50 in the data set with LASV Josiah was 0.2 µM; in the data set with PICV-GFP, under 0.2 µM.
